Results from paper PMC10056986 (Pharmaceuticals, 2023).
Read-outs that look alike come from different tables or passages of the source.

Assays:
in vivo [1] = conditions: both, SD, rat; for AUC(0-t): AUC0-last
H1 = H1 (Homo sapiens, UniProt P35367); experiment: cell-based
22 GPCR targets = type: cell-based, human; conditions: read-out: IC50 (antagonist screening)
[2] = system: Influenza virus A/Weiss/43(H1N1); experiment: microbe, parasite or virus in culture; type: cell-based; conditions: H1N1, MDCK, read-out: EC50 (mean ± SD)
[3] = system: A/Qingyuan/GIRD01/2017 (H7N9); experiment: microbe, parasite or virus in culture; type: cell-based, avian influenza virus; conditions: Influenza A virus, H7N9, MDCK, read-out: IC50 (mean ± SD)
CB1 = CB1 (Homo sapiens, UniProt P21554); experiment: cell-based
CB1, sequence (P21554 whole entry): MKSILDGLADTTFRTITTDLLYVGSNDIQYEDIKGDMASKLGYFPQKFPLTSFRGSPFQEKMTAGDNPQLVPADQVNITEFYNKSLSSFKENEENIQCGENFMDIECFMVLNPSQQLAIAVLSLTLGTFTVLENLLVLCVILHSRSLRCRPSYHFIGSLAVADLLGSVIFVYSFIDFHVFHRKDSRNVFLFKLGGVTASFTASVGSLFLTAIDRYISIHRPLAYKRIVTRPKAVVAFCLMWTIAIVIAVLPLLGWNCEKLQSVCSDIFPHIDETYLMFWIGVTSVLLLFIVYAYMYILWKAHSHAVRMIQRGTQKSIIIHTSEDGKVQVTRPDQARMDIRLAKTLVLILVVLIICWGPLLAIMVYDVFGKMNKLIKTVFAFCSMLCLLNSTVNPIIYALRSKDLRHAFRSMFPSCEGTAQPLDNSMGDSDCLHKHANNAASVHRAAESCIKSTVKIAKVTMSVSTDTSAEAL

DYRK3 = DYRK3 (Homo sapiens, UniProt O43781); experiment: biochemical
DYRK3, sequence (O43781 whole entry): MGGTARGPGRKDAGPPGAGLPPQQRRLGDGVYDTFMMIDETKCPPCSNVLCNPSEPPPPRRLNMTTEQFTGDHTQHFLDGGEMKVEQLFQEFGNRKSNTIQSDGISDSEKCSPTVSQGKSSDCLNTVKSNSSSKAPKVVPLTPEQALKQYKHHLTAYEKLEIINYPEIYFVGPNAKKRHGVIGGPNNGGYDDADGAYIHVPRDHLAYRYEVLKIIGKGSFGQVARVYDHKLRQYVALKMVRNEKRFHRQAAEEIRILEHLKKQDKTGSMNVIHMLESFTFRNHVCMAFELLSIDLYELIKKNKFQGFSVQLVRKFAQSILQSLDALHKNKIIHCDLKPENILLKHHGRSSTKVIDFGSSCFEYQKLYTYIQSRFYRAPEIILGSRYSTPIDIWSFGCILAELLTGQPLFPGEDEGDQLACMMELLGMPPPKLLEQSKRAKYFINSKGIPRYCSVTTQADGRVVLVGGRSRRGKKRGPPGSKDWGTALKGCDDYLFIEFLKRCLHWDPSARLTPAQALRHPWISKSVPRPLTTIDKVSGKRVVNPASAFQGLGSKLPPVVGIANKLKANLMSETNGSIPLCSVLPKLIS

Eta = Eta (Homo sapiens, UniProt P25101); experiment: cell-based
Eta, sequence (P25101 21-427): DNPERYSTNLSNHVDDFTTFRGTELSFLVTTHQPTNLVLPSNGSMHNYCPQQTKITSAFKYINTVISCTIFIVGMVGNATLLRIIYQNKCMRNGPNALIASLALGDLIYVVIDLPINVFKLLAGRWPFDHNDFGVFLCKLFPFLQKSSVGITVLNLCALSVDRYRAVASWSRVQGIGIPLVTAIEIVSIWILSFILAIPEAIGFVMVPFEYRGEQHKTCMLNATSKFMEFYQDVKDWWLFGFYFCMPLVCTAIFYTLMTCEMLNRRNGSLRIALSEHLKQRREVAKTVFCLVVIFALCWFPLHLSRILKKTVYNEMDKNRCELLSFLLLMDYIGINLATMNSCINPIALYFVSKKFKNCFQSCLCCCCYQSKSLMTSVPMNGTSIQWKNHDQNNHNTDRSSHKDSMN

[4] = system: H1N1 and H3N2 influenza A virus strains; experiment: microbe, parasite or virus in culture; conditions: MDCK
op-kappa = op-kappa (Homo sapiens, UniProt P41145); experiment: cell-based
op-kappa, sequence (P41145 whole entry): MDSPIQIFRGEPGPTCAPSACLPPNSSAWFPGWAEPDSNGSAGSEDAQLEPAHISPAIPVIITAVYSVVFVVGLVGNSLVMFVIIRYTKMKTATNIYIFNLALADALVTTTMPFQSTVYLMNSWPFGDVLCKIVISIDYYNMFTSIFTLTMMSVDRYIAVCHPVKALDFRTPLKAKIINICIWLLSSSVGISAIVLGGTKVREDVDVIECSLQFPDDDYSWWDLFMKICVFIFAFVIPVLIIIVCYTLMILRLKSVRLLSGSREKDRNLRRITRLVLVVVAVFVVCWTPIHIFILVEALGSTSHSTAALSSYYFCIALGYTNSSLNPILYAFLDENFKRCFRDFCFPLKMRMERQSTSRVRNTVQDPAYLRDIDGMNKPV

D1 = D1 (Homo sapiens, UniProt P21728); experiment: cell-based
D1, sequence (P21728 whole entry): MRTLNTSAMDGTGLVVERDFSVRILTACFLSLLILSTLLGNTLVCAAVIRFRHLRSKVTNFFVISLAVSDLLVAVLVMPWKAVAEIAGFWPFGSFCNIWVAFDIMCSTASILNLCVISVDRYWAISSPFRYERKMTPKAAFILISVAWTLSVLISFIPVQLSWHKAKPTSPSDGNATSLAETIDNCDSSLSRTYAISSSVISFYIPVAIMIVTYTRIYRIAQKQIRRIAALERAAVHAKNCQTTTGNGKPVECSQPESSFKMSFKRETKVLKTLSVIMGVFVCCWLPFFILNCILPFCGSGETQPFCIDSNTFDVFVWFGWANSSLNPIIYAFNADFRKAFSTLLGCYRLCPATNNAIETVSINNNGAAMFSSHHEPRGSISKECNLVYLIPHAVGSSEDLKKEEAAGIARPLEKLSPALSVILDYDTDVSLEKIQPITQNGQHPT

Alpha1a = Alpha1a (Homo sapiens, UniProt P35348); experiment: cell-based
Alpha1a, sequence (P35348 whole entry): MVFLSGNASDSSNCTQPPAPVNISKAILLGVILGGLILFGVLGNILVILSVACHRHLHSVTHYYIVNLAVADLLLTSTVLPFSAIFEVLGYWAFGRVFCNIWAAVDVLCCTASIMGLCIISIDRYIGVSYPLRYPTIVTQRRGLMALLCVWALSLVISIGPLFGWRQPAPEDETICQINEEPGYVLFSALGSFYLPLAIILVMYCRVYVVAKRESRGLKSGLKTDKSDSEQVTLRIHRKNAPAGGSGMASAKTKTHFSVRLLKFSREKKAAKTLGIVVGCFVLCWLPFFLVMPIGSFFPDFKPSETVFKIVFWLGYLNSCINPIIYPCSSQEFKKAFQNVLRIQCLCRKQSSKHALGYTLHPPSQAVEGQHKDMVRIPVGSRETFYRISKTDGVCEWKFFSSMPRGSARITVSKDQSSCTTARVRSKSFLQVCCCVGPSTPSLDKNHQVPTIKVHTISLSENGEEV

H2 = H2 (Homo sapiens, UniProt P25021); experiment: cell-based
H2, sequence (P25021 whole entry): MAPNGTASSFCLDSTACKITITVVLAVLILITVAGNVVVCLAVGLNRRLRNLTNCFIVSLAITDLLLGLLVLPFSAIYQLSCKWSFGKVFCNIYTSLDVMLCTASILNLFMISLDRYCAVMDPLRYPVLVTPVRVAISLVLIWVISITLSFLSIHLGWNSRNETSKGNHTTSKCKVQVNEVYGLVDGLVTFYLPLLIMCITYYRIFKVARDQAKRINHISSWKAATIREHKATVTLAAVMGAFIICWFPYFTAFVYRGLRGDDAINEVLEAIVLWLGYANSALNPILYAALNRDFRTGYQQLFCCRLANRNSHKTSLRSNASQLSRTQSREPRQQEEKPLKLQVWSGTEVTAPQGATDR

in vivo [5] = conditions: female, BALB/c, mouse, po
HBV = experiment: microbe, parasite or virus in culture; type: cell-based; conditions: Hepatitis B virus, HepG2.2.15, read-out: EC50 for Virus
A/PR/8/34 (H1N1) = system: A/PR/8/34 (H1N1); set-up: species or system BALB/c mice; conditions: mouse, in vivo
EPHA2 = EPHA2 (Homo sapiens, UniProt P29317); experiment: biochemical
[6] = system: Influenza virus A/Hong Kong/8/68 (H3N2); experiment: microbe, parasite or virus in culture; type: cell-based; conditions: unidentified influenza virus, H3N2, MDCK, read-out: EC50 (mean ± SD)
CB2 [7] = target: T1, CB2 (Homo sapiens, UniProt P34972); experiment: cell-based
T1 sequence (P34972 whole entry): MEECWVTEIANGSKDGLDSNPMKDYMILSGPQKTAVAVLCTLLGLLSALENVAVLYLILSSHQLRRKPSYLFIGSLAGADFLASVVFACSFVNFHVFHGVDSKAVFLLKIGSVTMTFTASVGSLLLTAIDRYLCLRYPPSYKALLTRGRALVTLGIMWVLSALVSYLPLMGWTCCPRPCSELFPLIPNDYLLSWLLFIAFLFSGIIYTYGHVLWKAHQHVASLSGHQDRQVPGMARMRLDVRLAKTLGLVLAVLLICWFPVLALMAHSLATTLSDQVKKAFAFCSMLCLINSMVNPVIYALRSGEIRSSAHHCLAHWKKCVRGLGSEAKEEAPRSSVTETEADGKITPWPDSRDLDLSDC

CCKa = target: T2, CCKa (Homo sapiens, UniProt P32238); experiment: cell-based
T2 sequence (P32238 1-428): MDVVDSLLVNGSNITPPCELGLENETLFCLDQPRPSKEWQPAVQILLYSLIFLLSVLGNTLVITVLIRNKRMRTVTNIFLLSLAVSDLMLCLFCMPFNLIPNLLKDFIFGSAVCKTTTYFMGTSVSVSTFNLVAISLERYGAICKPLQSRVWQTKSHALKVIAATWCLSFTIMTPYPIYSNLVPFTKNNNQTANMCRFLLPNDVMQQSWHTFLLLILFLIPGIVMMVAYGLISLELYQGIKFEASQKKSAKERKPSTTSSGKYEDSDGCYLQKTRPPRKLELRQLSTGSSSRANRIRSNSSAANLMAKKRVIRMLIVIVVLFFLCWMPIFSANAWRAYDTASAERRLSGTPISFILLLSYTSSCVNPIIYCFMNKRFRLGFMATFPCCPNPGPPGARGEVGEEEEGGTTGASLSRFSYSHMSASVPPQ

M1 [8] = target: T3, M1 (Homo sapiens, UniProt P11229); experiment: cell-based
T3 sequence (P11229 whole entry): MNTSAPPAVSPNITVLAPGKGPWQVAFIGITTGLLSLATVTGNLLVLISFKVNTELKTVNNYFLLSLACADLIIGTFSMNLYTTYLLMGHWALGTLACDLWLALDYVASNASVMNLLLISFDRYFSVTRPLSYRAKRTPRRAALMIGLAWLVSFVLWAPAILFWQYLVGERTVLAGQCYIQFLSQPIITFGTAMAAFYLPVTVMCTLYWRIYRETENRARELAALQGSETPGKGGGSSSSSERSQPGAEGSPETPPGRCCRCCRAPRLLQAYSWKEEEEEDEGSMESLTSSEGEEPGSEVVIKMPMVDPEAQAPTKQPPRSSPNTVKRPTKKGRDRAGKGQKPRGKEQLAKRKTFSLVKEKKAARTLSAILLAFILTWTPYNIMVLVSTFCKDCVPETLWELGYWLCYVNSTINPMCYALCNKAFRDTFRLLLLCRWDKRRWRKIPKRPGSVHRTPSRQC

op-mu = op-mu (Homo sapiens, UniProt P35372); experiment: cell-based
op-mu, sequence (P35372 whole entry): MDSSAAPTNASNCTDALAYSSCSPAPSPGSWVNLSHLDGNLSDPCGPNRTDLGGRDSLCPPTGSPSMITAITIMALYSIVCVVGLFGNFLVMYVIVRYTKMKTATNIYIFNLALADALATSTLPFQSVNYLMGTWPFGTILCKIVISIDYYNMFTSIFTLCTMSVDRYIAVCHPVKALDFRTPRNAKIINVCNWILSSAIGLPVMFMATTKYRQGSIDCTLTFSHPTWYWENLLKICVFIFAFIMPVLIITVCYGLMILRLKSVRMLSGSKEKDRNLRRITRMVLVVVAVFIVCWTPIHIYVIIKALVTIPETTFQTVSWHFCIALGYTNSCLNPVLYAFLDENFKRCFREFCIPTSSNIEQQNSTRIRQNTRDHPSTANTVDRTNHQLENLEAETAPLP

MAP4K4 = MAP4K4 (Homo sapiens, UniProt O95819); experiment: biochemical
CB2 [9] = target: T1, CB2; experiment: cell-based; remark: listed apart in the source
M1 [10] = target: T3, M1; experiment: cell-based; remark: listed apart in the source
PKA = PKA (Homo sapiens, UniProt P17612); experiment: biochemical
MST4 = MST4 (Homo sapiens, UniProt Q9P289); experiment: biochemical
in vitro = conditions: African green monkey
p38 alpha = p38 alpha (Homo sapiens, UniProt Q16539); experiment: biochemical
[11] = system: influenza A virus WSN/33 (H1N1); set-up: species or system BALB/c mice; conditions: mouse, in vivo
[12] = 10,000 nM, read-out: Inhibition at Maximum Concentration (%)

H1, sequence (P35367 whole entry): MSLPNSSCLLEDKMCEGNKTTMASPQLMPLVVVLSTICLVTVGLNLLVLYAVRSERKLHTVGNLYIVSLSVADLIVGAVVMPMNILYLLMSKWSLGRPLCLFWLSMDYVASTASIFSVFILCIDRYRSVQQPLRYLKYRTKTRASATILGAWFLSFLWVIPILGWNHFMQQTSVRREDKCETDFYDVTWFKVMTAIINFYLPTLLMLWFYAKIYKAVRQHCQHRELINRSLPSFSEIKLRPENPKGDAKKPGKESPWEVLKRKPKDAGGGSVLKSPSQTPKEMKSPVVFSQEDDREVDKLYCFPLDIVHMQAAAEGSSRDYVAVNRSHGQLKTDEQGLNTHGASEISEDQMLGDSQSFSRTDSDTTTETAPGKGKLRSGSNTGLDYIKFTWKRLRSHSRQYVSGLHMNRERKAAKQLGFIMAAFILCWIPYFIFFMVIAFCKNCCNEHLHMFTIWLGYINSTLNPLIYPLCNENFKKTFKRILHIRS

**Q.** What does the source list for O=C(O)[C@H]1C2CCC(CC2)[C@@H]1Nc1nc(-c2n[nH]c3ncc(F)cc23)nc(C2CC2)c1F [ZSP1273]?
**A.** Vd (in vivo [1]; iv, 3 mg/kg): 0.508 ± 0.241 L/kg; clearance (in vivo [1]; iv, 3 mg/kg): 12.9 ± 2.23 mL/min/kg; half-life (in vivo [1]; iv, 3 mg/kg): 127 ± 87.6 min; AUC(0-t) (in vivo [1]; iv, 3 mg/kg): 3950 ± 773 ng·h/mL; bioavailability (in vivo [1]; po, 3 mg/kg): 22.8%; AUC(0-t) (in vivo [1]; po, 3 mg/kg): 899 ± 213 ng·h/mL; Cmax (in vivo [1]; po, 3 mg/kg): 661 ± 304 ng/mL; AUC(0-t) (in vivo [1]; po, 15 mg/kg): 12100 ng·h/mL; Cmax (in vivo [1]; po, 15 mg/kg): 5680 ± 2470 ng/mL; AUC(0-t) (in vivo [1]; po, 75 mg/kg): 77700 ng·h/mL; Cmax (in vivo [1]; po, 75 mg/kg): 17200 ng/mL; EC50 (H1): > 12 µM; Activity at Maximum Concentration (%) (H1; 12,000 nM): 0.73%; IC50 (22 GPCR targets): > 10 µM; EC50 [2]: 0.012 ± 0.002 nM; IC50 [3]: 0.777 ± 0.427 nM; IC50 (CB1): > 10 µM; inhibition at 10 µM (CB1; [12]): -77.2%; IC50 (DYRK3): > 10 µM; IC50 (Eta): > 10 µM; inhibition at 10 µM (Eta; [12]): 9.07%; EC50 ([4]; read-out: EC50 values range): 0.01 to 0.063 nM; EC50 ([4]; read-out: average EC50 value range): 0.012 to 0.063 nM; EC50 (op-kappa): > 12 µM; Activity at Maximum Concentration (%) (op-kappa; 12,000 nM): −18.96%; IC50 (D1): > 10 µM; inhibition at 10 µM (D1; [12]): -16.7%; IC50 (Alpha1a): > 10 µM; inhibition at 10 µM (Alpha1a; [12]): -56.5%; EC50 (H2): > 12 µM; Activity at Maximum Concentration (%) (H2; 12,000 nM): −3.46%; AUC(0-t) (in vivo [5]; 3 mg/kg): 1040 ng·h/mL; Cmax (in vivo [5]; 3 mg/kg): 439 ng/mL; AUC(0-t) (in vivo [5]; 10 mg/kg): 6190 ng·h/mL; Cmax (in vivo [5]; 10 mg/kg): 3010 ng/mL; AUC(0-t) (in vivo [5]; 30 mg/kg): 56000 ng·h/mL; Cmax (in vivo [5]; 30 mg/kg): 23700 ng/mL; EC50 (HBV): > 10 µM; mortality (A/PR/8/34 (H1N1)): 40%; IC50 (EPHA2): > 10 µM; EC50 [6]: 0.019 ± 0.01 nM; EC50 (CB2 [7]): > 12 µM; Activity at Maximum Concentration (%) (CB2 [7]; 12,000 nM): −17.1%; EC50 (CCKa): > 12 µM; Activity at Maximum Concentration (%) (CCKa; 12,000 nM): −4.4%; IC50 (M1 [8]): > 10 µM; inhibition at 10 µM (M1 [8]; [12]): -0.95%; IC50 (op-mu): > 10 µM; inhibition at 10 µM (op-mu; [12]): -24.5%; IC50 (MAP4K4): > 10 µM; IC50 (CB2 [9]): > 10 µM; inhibition at 10 µM (CB2 [9]; [12]): 42%; EC50 (M1 [10]): > 12 µM; Activity at Maximum Concentration (%) (M1 [10]; 12,000 nM): −3.22%; IC50 (PKA): > 10 µM; IC50 (MST4): > 10 µM; CC50 (in vitro): > 10 µM; IC50 (p38 alpha): > 10 µM; animals died (of n = 8) [11]: one; day on which body weight of surviving mice began to recover [11]: 8 days; day on which weight of surviving mice increased gradually [11]: 6th; mice died (of n = 8) [11]: no mice died; survival rate [11]: 100%
